Experimental data from patent publication US20090076201A1, “(METH) ACRYLOYLOXYTETRAHYDROFURANS AND PROCESS FOR PRODUCTION THEREOF” (Mitsubishi Chemical Corporation, priority 2005, published 2009).

Assay: Solubility test in heptane and aqueous solvents at 26° C.
Settings: grams of solute dissolved in 100 g of solvent
Procedure: A solubility test of erythritan monomethacrylate (HOTHFMA) in aqueous solvents shown in the following table was carried out at a temperature of 26° C. In this connection, for the purpose of comparison, data on tetrahydrofurfuryl methacrylate (TFMA) and α-methacryloyl-γ-butyrolactone (GBLMA) are also shown. The numeric values in the table represent grams of individual solutes dissolved in 100 g of each solvent.

C=C(C)C(=O)OC1COCC1O (stereo not drawn) [HOTHFMA, 3-methacryloyloxy-4-hydroxytetrahydrofuran]
Solubility (26° C.) in H2O (solvent H2O): >395 g/100 g solv. | Solubility (26° C.) in H2O/MeOH 4/1 (wt) (solvent H2O/MeOH 4/1 (wt)): >353 g/100 g solv. | Solubility (26° C.) in Heptane (solvent heptane): 1.74 g/100 g solv.
